What was measured:
[1] = target: T1, A. sativa phototropin 1 LOV2 (AsLOV2) (Avena sativa, UniProt O49003, Q513L); assay: X-ray crystal structure; type: binding; details: dark-adapted 0.90 A (7PGZ) and blue-light freeze-trapped 0.98 A (7PH0); light: thioadduct with C450 (covalent, modelled noncovalent); sodium acetate pH 4.6-5.0
T1 construct: gene NPH1-1; LOV2 domain residues 404-546 with flanking A'alpha and Jalpha helices; E. coli expression; N-terminal His6-SUMO tag cut by Senp2, leaving N-terminal GEF extension

[2] = target: T2, A. sativa phototropin 1 LOV2 (AsLOV2) (Avena sativa, UniProt O49003); assay: X-ray crystal structure; type: binding; details: dark-adapted 1.00 A (7PGX) and blue-light freeze-trapped 1.09 A (7PGY); light: thioadduct with C450 (covalent, not seen in density, modelled noncovalent); sodium acetate pH 4.6-5.0
T2 construct: gene NPH1-1; LOV2 domain residues 404-546 with flanking A'alpha and Jalpha helices; E. coli expression; N-terminal His6-SUMO tag cut by Senp2, leaving N-terminal GEF extension
T2 sequence (O49003 entry or part of it): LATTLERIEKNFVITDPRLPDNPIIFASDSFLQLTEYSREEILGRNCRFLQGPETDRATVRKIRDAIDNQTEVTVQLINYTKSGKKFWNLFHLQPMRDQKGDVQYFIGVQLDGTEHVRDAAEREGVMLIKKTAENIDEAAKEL

T1 sequence (O49003 entry or part of it Q513L): as the sequence (O49003 entry or part of it) above, with Q110L counted along it

`Cc1cc2nc3c(=O)[nH]c(=O)nc-3n(C[C@H](O)[C@H](O)[C@H](O)COP(=O)(O)O)c2cc1C` [flavin mononucleotide] was tested, and the X-ray crystal structure [1] was “the cofactors were generally modeled as noncovalently bound oxidized flavin mononucleotides” and the X-ray crystal structure [2] was 7pgx (wild-type, dark), 7pgy (wild-type, light), 7pgz (Q513L, dark), and 7ph0 (Q513L, light).

— PMC9098866, “Signal transduction in light-oxygen-voltage receptors lacking the active-site glutamine” (Nature Communications, 2022)
